The values below come from patent US6159934A, “Use of GHRH-RP to stimulate stem cell factor production” (Indiana University Foundation, priority 1996, dated 2000).

For assay [1], the system named is Sertoli cell c-fos gene expression. The settings on record: treatment of cultured Sertoli cells; Srivastava et al., Endocrinology 133, 1478 (1993); cited from earlier work.
For assay [2], the system named is androgen binding protein (ABP) gene expression in Sertoli cells. The assay can be described thus: Northern blot analysis of androgen binding protein (ABP) gene expression in cultured Sertoli cells. It counts as cell-based. The settings on record: GHRH-RP 10 nM and 100 nM, GHRH 10 nM, 16 hours, rat Sertoli cells. The protocol:
(§1) As indicated above, it has been discovered that GHRH-RP has a unique testicular action. GHRH-RP specifically activated SVF in Sertoli cells as described in Example 3 below. […] Northern gel analysis of 10 μg of total Sertoli cell RNA was performed and the blot probed for SCF, transferrin, androgen binding protein (ABP), α-inhibin and γ-actin as control. B. Bloch, A. Baird, N. Ling, R. Guillemin, Endocrinology 118, 156 (1986). Stimulation of SCF expression is 12 fold over control at 10 nM and 16 fold at 100 nM concentrations of GHRH-RP. GHRH (10 nM) stimulated stem cell factor gene expression 3 fold over control. […] Other Sertoli cell specific transcripts including transferrin, ABP and α-inhibin were note regulated by GHRH-RP (FIG. 6). Although a functional GHRH receptor has been identified in Sertoli cells (R. S. Johnson, B. M. Spiegelman, V. Papaioannou, Cell 71, 577 (1992); K. M. Zsebo et al., Cell 63, 213 (1990); E. Huang et al., Cell 63, 225), the GHRH-RP stimulation of stem cell factor expression may not be mediated through this receptor. […] Adenylate cyclase stimulation is measured as fold stimulation of control. […]
(§2) Sprague-Dawley rats (20-22 day old) were obtained from Harlan Labs (Indianapolis, IN). […] Cell purity was monitored by phase contrast microscopy and by comparative reverse transcription-polymerase chain reaction (RT-PCR) amplification. […]

Assay [3] deals with stem cell factor (SCF) gene expression in Sertoli cells. The settings on record: treatment of cultured Sertoli cells; Srivastava et al., Endocrinology 133, 1478 (1993); cited from earlier work.
Assay [4] has as its system α-inhibin gene expression in Sertoli cells. Nature of the assay: Northern blot analysis of α-inhibin gene expression in cultured Sertoli cells. It counts as cell-based. The settings on record: GHRH-RP 10 nM and 100 nM, GHRH 10 nM, 16 hours, rat Sertoli cells. The method, then: as §1, §2
The subject of assay [5] is stem cell factor (SCF) gene expression in Sertoli cells. The assay can be described thus: Northern blot analysis of SCF gene expression in cultured Sertoli cells. Type of assay: cell-based. The settings on record: 16 hours, rat Sertoli cells, actin as control. The method, then: As indicated above, it has been discovered that GHRH-RP has a unique testicular action. GHRH-RP specifically activated SVF in Sertoli cells as described in Example 3 below. […] Northern gel analysis of 10 μg of total Sertoli cell RNA was performed and the blot probed for SCF, transferrin, androgen binding protein (ABP), α-inhibin and γ-actin as control. B. Bloch, A. Baird, N. Ling, R. Guillemin, Endocrinology 118, 156 (1986). Stimulation of SCF expression is 12 fold over control at 10 nM and 16 fold at 100 nM concentrations of GHRH-RP. GHRH (10 nM) stimulated stem cell factor gene expression 3 fold over control. […] Other Sertoli cell specific transcripts including transferrin, ABP and α-inhibin were note regulated by GHRH-RP (FIG. 6). Although a functional GHRH receptor has been identified in Sertoli cells (R. S. Johnson, B. M. Spiegelman, V. Papaioannou, Cell 71, 577 (1992); K. M. Zsebo et al., Cell 63, 213 (1990); E. Huang et al., Cell 63, 225), the GHRH-RP stimulation of stem cell factor expression may not be mediated through this receptor. […] Briefly, shown in FIG. 6 are the results of experiments in which rat Sertoli cells, isolated and cultured for 4 days were incubated with GHRH-RP (100 nM), GHRH (100 nM), FSH (0.0275 U/ml) or control media for 30 minutes at 37° C. The cells were then assayed for cAMP production by 125 I cAMP Radioimmunoassay. C. H. Srivastava, J. D. Fleck, A. M. Meyers, S. A. Berry, O. H. Pescovitz, "Distribution of Growth Hormone Releasing Hormone-Like (HRH-LI) mRNA and Immunoreactivity in Rat Tissues" (Abstract), The Endocrine Society, 73rd Annual Endocrine Society, Washington, D.C. (1991). Adenylate cyclase stimulation is measured as fold stimulation of control. Each bar is representative of five separate experiments.
as §2

The subject of assay [6] is transferrin gene expression in Sertoli cells. Nature of the assay: Northern blot analysis of transferrin gene expression in cultured Sertoli cells. The settings on record: GHRH-RP 10 nM and 100 nM, GHRH 10 nM, 16 hours, rat Sertoli cells. Type of assay: cell-based. The method, then:
as §1, §2

In assay [7] the test system is adenylate cyclase in cultured Sertoli cells. Nature of the assay: cAMP production (125I cAMP radioimmunoassay) in cultured Sertoli cells. Type of assay: cell-based. The conditions noted are these: 100 nM, 30 minutes at 37° C., rat Sertoli cells day 4 of culture. The protocol:
As indicated above, it has been discovered that GHRH-RP has a unique testicular action. GHRH-RP specifically activated SVF in Sertoli cells as described in Example 3 below. […] Northern gel analysis of 10 μg of total Sertoli cell RNA was performed and the blot probed for SCF, transferrin, androgen binding protein (ABP), α-inhibin and γ-actin as control. B. Bloch, A. Baird, N. Ling, R. Guillemin, Endocrinology 118, 156 (1986). Stimulation of SCF expression is 12 fold over control at 10 nM and 16 fold at 100 nM concentrations of GHRH-RP. GHRH (10 nM) stimulated stem cell factor gene expression 3 fold over control. […] Other Sertoli cell specific transcripts including transferrin, ABP and α-inhibin were note regulated by GHRH-RP (FIG. 6). Although a functional GHRH receptor has been identified in Sertoli cells (R. S. Johnson, B. M. Spiegelman, V. Papaioannou, Cell 71, 577 (1992); K. M. Zsebo et al., Cell 63, 213 (1990); E. Huang et al., Cell 63, 225), the GHRH-RP stimulation of stem cell factor expression may not be mediated through this receptor. […] Briefly, shown in FIG. 6 are the results of experiments in which rat Sertoli cells, isolated and cultured for 4 days were incubated with GHRH-RP (100 nM), GHRH (100 nM), FSH (0.0275 U/ml) or control media for 30 minutes at 37° C. […] Adenylate cyclase stimulation is measured as fold stimulation of control. […]
(In general: cAMP levels reflect the balance of adenylyl cyclase and phosphodiesterase activity.)

“GHRH: mature 43 amino acid rat GHRH peptide, hypothalamic factor that stimulates release of pituitary growth hormone (HADAIFTSSYRRILGQLYARKLLHEIMNRQQGERNQEQRSRFN)”: the “Sertoli cell c-fos gene expression” value in assay [1] was “activates”. For the same substance, the “stimulation of ABP gene expression over control” value in assay [2] is reported as “no stimulation”. For the same substance, the “Sertoli cell stem cell factor gene expression” value in assay [3] is “activates”. Further, the “stimulation of α-inhibin gene expression over control” value in assay [4] was “no stimulation”. Further, in assay [5] (10 nM), the “Stimulation of SCF expression” value was found to be 3 fold over control. Moreover, the “stimulation of transferrin gene expression over control” value in assay [6] was “no stimulation”.

As to “GHRH-RP: 30 amino acid C-terminal peptide of the GHRH precursor; rat peptide synthesized from the deduced amino acid sequence (amino acids 74-104) (HLDRVWAEDKQMALESILQGFPRMKLSAEA)”, the “stimulation of ABP gene expression over control” value in assay [2] is “no stimulation”. Besides, the “stimulation of α-inhibin gene expression over control” value in assay [4] was “no stimulation”. Moreover, the results for the “Stimulation of SCF expression” value in assay [5] (10 nM) and in assay [5] (100 nM) were 12 fold over control and 16 fold, respectively. The “stimulation of transferrin gene expression over control” value in assay [6] is given as “no stimulation”. For the same substance, the “Adenylate cyclase stimulation (cAMP production)” value in assay [7] is given as “does not stimulate increases”.
